pIC50: −log10 of the molar value. Read-outs that look alike come from different tables or passages of the source.
Legend:
human CSNK1A1 [1] = target: T1, human CSNK1A1 (Homo sapiens (Human), UniProt P48729); test: CSNK1A1 assay (ADP-Glo, 1 μM ATP); type: biochemical; conditions: median, read-out: CSNK1A1 Low ATP IC50 [mol/l] (median)
Procedure: CSNK1A1-inhibitory activity of compounds of the present invention in presence of 1 μM adenosine-tri-phosphate (ATP) was quantified employing the CSNK1A1 assay as described in the following paragraphs. In essence, the enzyme activity is measured by quantification of the adenosine-di-phosphate (ADP), which is generated as a co-product of the enzyme reaction, via the “ADP-Glo™ Kinase Assay” kit from the company Promega. This detection system works as follows: In a first step the ATP not consumed in the kinase reaction is quantitatively converted to CAMP employing an adenylate cyclase (“ADP-Glo-reagent”), then the adenylate cyclase is stopped and the ADP generated in the kinase reaction converted to ATP which generates in a luciferase-based reaction a glow-luminescence signal (“Kinase Detection Reagent”).
(§1) Recombinant fusion protein of N-terminal Glutathion-S-Transferase (GST) and full-length human CSNK1A1, expressed by baculovirus infected insect cells and purified via Glutathion affinity chromatography, was purchased from Life Technologies (product no. PV4174) and used as enzyme. As substrate for the kinase reaction the biotinylated peptide biotin-Ahx-KRRRAL-pS-VASLPGL (C-terminus in amide form) was used which can be purchased e.g. from the company Biosyntan (Berlin-Buch, Germany).
For the assay 50 nl of a 100-fold concentrated solution of the test compound in DMSO was pipetted into a white 1536-well microtiter plate (Greiner Bio-One, Frickenhausen, Germany), 2 μL of a solution of CSNK1A1 in aqueous assay buffer [50 mM HEPES pH 7.5, 10% (v/v) glycerol, 10 mM MgCl2, 50 mM NaCl, 1 mM dithiothreitol, 0.01% (w/v) bovine serum albumin, 0.01% (v/v) Triton X-100] were added and the mixture was incubated for 15 min at 22° C. to allow pre-binding of the test compounds to the enzyme before the start of the kinase reaction. Then the kinase reaction was started by the addition of 3 μL of a solution of ATP (1.67 μM=>final conc. in the 5 μL assay volume is 1 μM) and peptide substrate (50 μM=>final conc. in the 5 μL assay volume is 30 μM) in assay buffer and the resulting mixture was incubated for a reaction time of 30 min at 22° C. The concentration of CSNK1A1 was adjusted depending of the activity of the enzyme lot and was chosen appropriate to have the assay in the linear range, a typical concentrations are about 0.0375 ng/μL. The reaction was stopped by the addition of 2.5 μL of “ADP-Glo-reagent” (1:1.5 fold diluted with water) and the resulting mixture was incubated at 22° C. for 1 h to convert the ATP not consumed in the kinase reaction completely to CAMP. Subsequently 2.5 μL of the “kinase detection reagent” (1.2 fold more concentrated than recommended by the producer) were added, the resulting mixture was incubated at 22° C. for 1 h and then the luminescence measured with a suitable measurement instrument (e.g. Viewlux™ from Perkin-Elmer). The amount of emitted light was taken as a measure for the amount of ADP generated and thereby for the activity of the CSNK1A1.
(§2) The data were normalised (enzyme reaction without inhibitor=0% inhibition, all other assay components but no enzyme=100% inhibition).

human CSNK1A1 [2] = target: T1, human CSNK1A1; test: CSNK1A1 high ATP assay (ADP-Glo, 1 mM ATP); type: biochemical; conditions: median, read-out: CSNK1A1 High ATP assay IC50 [mol/l] (median)
Procedure: CSNK1A1-inhibitory activity of compounds of the present invention in presence of 1 mM adenosine-tri-phosphate (ATP) was quantified employing the CSNK1A1-high-ATP-assay as described in the following paragraphs. In essence, the enzyme activity is measured by quantification of the adenosine-di-phosphate (ADP), which is generated as a co-product of the enzyme reaction, via the “ADP-Glo™ Kinase Assay” kit from the company Promega. This detection system works as follows: In a first step the ATP not consumed in the kinase reaction is quantitatively converted to CAMP employing an adenylate cyclase (“ADP-Glo-reagent”), then the adenylate cyclase is stopped and the ADP generated in the kinase reaction converted to ATP which generates in a luciferase-based reaction a glow-luminescence signal (“Kinase Detection Reagent”).
as §1
For the assay 50 nl of a 100 fold concentrated solution of the test compound in DMSO was pipetted into a white low volume 384-well microtiter plate (Greiner Bio-One, Frickenhausen, Germany), 2 μL of a solution of CSNK1A1 in aqueous assay buffer [50 mM HEPES pH 7.5, 10% (v/v) glycerol, 10 mM MgCl2, 50 mM NaCl, 1 mM dithiothreitol, 0.01% (w/v) bovine serum albumin, 0.01% (v/v) Triton X-100] were added and the mixture was incubated for 15 min at 22° C. to allow pre-binding of the test compounds to the enzyme before the start of the kinase reaction. Then the kinase reaction was started by the addition of 3 μL of a solution of ATP (1.67 mM=>final conc. in the 5 μL assay volume is 1 mM) and peptide substrate (167 μM=>final conc. in the 5 μL assay volume is 100 μM) in assay buffer and the resulting mixture was incubated for a reaction time of 30 min at 22° C. The concentration of CSNK1A1 was adjusted depending of the activity of the enzyme lot and was chosen appropriate to have the assay in the linear range, a typical concentration is about 0.4 ng/μL. The reaction was stopped by the addition of 2.5 μL of “ADP-Glo-reagent” (1:1.5 fold diluted with water) and the resulting mixture was incubated at 22° C. for 1 h to convert the ATP not consumed in the kinase reaction completely to CAMP. Subsequently 2.5 μL of the “kinase detection reagent” (1.2 fold more concentrated than recommended by the producer) were added, the resulting mixture was incubated at 22° C. for 1 h and then the luminescence measured with a suitable measurement instrument (e.g. Viewlux™ from Perkin-Elmer). The amount of emitted light was taken as a measure for the amount of ADP generated and thereby for the activity of the CSNK1A1.
as §2

[3] = Solubility assay (thermodynamic solubility); type: physicochemical; conditions: thermodynamic from solid, aqueous buffer, mean
Procedure: Solubility of solid compound in aqueous buffer was determined by an equilibrium shake flask method. A saturated solution of drug in solvent (˜2 mg/ml solvent) was prepared and the solution was mixed for 24 h to ensure that equilibrium has been reached. The solution was centrifuged to remove the insoluble fraction and the concentration of the compound in solution was determined by HPLC-UV using a standard calibration curve (Kerns, E. H. et al., Solubility Methods in: Drug-like Properties: Concepts, Structure Design and Methods, p 276-286. Burlington, MA: Academic Press 2008).

[4] = read-out: Thermodynamic Solubility [mg/l] (mean)
[5] = read-out: Thermodynamic Solubility [μmol/L] (mean)

T1 sequence (P48729 whole entry): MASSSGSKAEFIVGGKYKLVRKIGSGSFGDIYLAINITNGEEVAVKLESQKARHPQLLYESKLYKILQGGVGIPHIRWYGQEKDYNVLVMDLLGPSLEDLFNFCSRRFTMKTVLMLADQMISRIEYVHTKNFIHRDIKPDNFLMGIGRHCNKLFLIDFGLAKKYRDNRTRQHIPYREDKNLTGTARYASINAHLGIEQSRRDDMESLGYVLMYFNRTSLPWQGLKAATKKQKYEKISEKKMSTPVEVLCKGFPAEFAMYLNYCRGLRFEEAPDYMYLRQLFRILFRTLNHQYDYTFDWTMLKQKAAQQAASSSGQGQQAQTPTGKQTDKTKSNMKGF

| pIC50 (human CSNK1A1 [1]) | pIC50 (human CSNK1A1 [2]) | solubility thermodynamic at 24 h [3, 4] [mg/L] | solubility thermodynamic at 24 h [3, 5] [µmol/L] | SMILES |
| --- | --- | --- | --- | --- |
| 8.74 | 7.51 | 9.1 | 21.3 | Cc1nc(CC(=O)Nc2cc(-c3[nH]c4cccnc4c3-c3ccccn3)ccn2)cs1 [Example 3, 2-(2-methylthiazol-4-yl)-N-[4-[3-(2-pyridyl)-^1H-pyrrolo[3,2-b]pyridin-2-yl]-2-pyridyl]acetamide] |
| 8.53 | 6.91 | 14.9 | 34.1 | Cc1nn(C)c(C)c1CC(=O)Nc1cc(-c2[nH]c3cccnc3c2-c2ccccn2)ccn1 [Example 17, N-[4-[3-(2-pyridyl)-^1H-pyrrolo[3,2-b]pyridin-2-yl]-2-pyridyl]-2-(1,3,5-trimethylpyrazol-4-yl)acetamide] |
| 8.71 | 7.51 | 4.6 | 10.9 | Cc1cc(CC(=O)Nc2cc(-c3[nH]c4cccnc4c3-c3ccccn3)ccn2)n(C)n1 [Example 14] |
| 8.77 | 7.17 | 9.9 | 23.3 | Cc1noc(C)c1CC(=O)Nc1cc(-c2[nH]c3cccnc3c2-c2ccccn2)ccn1 [Example 12, 2-(3,5-dimethylisoxazol-4-yl)-N-[4-[3-(2-pyridyl)-^1H-pyrrolo[3,2-b]pyridin-2-yl]-2-pyridyl]acetamide] |
| 8.96 | 8.22 |  |  | O=C(Cc1cnc2ccccc2n1)Nc1cc(-c2[nH]c3cccnc3c2-c2ccccn2)ccn1 [Example 6, N-[4-[3-(2-pyridyl)-^1H-pyrrolo[3,2-b]pyridin-2-yl]-2-pyridyl]-2-quinoxalin-2-yl-acetamide] |
| 8.83 | 7.39 | 12.6 | 30.6 | O=C(Cc1ccns1)Nc1cc(-c2[nH]c3cccnc3c2-c2ccccn2)ccn1 [Example 22, 2-isothiazol-5-yl-N-[4-[3-(2-pyridyl)-^1H-pyrrolo[3,2-b]pyridin-2-yl]-2-pyridyl]acetamide] |
| 8.55 |  | 23.1 | 56.3 | Cc1nc(CC(=O)Nc2cc(-c3[nH]c4cccnc4c3-c3ccccn3)ccn2)co1 [Example 25, 2-(2-methyloxazol-4-yl)-N-[4-[3-(2-pyridyl)-^1H-pyrrolo[3,2-b]pyridin-2-yl]-2-pyridyl]acetamide] |

More lines, now with the values behind:

| SMILES | pIC50 (human CSNK1A1 [1]) | pIC50 (human CSNK1A1 [2]) | solubility thermodynamic at 24 h [3, 4] [mg/L] | solubility thermodynamic at 24 h [3, 5] [µmol/L] |
| --- | --- | --- | --- | --- |
| Cn1cc(CC(=O)Nc2cc(-c3[nH]c4cccnc4c3-c3ccccn3)ccn2)cn1 [Example 2, 2-(1-methylpyrazol-4-yl)-N-[4-[3-(2-pyridyl)-^1H-pyrrolo[3,2-b]pyridin-2-yl]-2-pyridyl]acetamide] | 8.38 | 7.50 | 85.2 | 208 |
| O=C(Cc1ccon1)Nc1cc(-c2[nH]c3cccnc3c2-c2ccccn2)ccn1 [Example 10, 2-isoxazol-3-yl-N-[4-[3-(2-pyridyl)-^1H-pyrrolo[3,2-b]pyridin-2-yl]-2-pyridyl]acetamide] | 8.71 |  | 15.4 | 38.9 |
| Cc1nn(C)cc1CC(=O)Nc1cc(-c2[nH]c3cccnc3c2-c2ccccn2)ccn1 [Example 9, 2-(1,3-dimethylpyrazol-4-yl)-N-[4-[3-(2-pyridyl)-^1H-pyrrolo[3,2-b]pyridin-2-yl]-2-pyridyl]acetamide] | 8.58 |  | 1.3 | 3.07 |
| Cn1cc(C(CC(F)F)C(=O)Nc2cc(-c3[nH]c4cccnc4c3-c3ccccn3)ccn2)cn1 (stereo not drawn) [Example 19, 4,4-difluoro-2-(1-methylpyrazol-4-yl)-N-[4-[3-(2-pyridyl)-^1H-pyrrolo[3,2-b]pyridin-2-yl]-2-pyridyl]butanamide] | 8.17 | 6.54 | 84 | 177 |
| O=C(Cc1ccn(CC(F)(F)F)n1)Nc1cc(-c2[nH]c3cccnc3c2-c2ccccn2)ccn1 [Example 20, N-[4-[3-(2-pyridyl)-^1H-pyrrolo[3,2-b]pyridin-2-yl]-2-pyridyl]-2-[1-(2,2,2-trifluoroethyl)pyrazol-3-yl]acetamide] | 8.73 | 7.01 | 23.9 | 50.1 |
| Cc1nocc1CC(=O)Nc1cc(-c2[nH]c3cccnc3c2-c2ccccn2)ccn1 [Example 30, 2-(3-methylisoxazol-4-yl)-N-[4-[3-(2-pyridyl)-^1H-pyrrolo[3,2-b]pyridin-2-yl]-2-pyridyl]acetamide] | 8.58 |  | 5.8 | 14.1 |
| Cc1ncc(CC(=O)Nc2cc(-c3[nH]c4cccnc4c3-c3ccccn3)ccn2)o1 [Example 24, 2-(2-methyloxazol-5-yl)-N-[4-[3-(2-pyridyl)-^1H-pyrrolo[3,2-b]pyridin-2-yl]-2-pyridyl]acetamide] | 8.71 |  | 26.3 | 64.1 |
| Cc1ocnc1CC(=O)Nc1cc(-c2[nH]c3cccnc3c2-c2ccccn2)ccn1 [Example 11, 2-(5-methyloxazol-4-yl)-N-[4-[3-(2-pyridyl)-^1H-pyrrolo[3,2-b]pyridin-2-yl]-2-pyridyl]acetamide] | 8.46 |  | 8.4 | 20.5 |
| O=C(Cc1cnco1)Nc1cc(-c2[nH]c3cccnc3c2-c2ccccn2)ccn1 [Example 4] |  |  | 25.2 | 63.7 |
| CC(C)n1ccc(CC(=O)Nc2cc(-c3[nH]c4cccnc4c3-c3ccccn3)ccn2)n1 [Example 28, 2-(1-isopropylpyrazol-3-yl)-N-[4-[3-(2-pyridyl)-^1H-pyrrolo[3,2-b]pyridin-2-yl]-2-pyridyl]acetamide] | 8.64 |  | < 0.1 | < 0.23 |

Source: patent publication US20250188075A1, “SUBSTITUTED HETEROCYCLIC CSNK1 INHIBITORS” (The Broad Institute, Inc., priority 2022, published 2025)
